# Experimental data reported in US20020049157A1, “Use of proteasome inhibitors for treating cancer, inflammation, autoimmune disease, graft rejection and septic shock” (priority 1998, published 2002).
# Assays:
# [1] = tested on: Tonsillar T cells; assay: DNA fragmentation (DNA laddering) in T cells; assay type: cell-based, human
# Procedure: (§1) Tonsillar T cells (A, B, and D) and Jurkat cells (C and E) were treated with LAC (10 μM for T cells and 6 μM for Jurkat cells). LAC was added at the beginning of the culture or 40 h after T cell activation as indicated. The cells were harvested at the time points as shown. They were evaluated for their viability with trypan blue exclusion (A, B, and C), and for their mode of cell death according to DNA fragmentation (D and E).
# (§2) We next employed DNA laddering to study the mode of cell death caused by LAC, and the result of this experiment also reflected the degree of cell death after different treatments. […] After 24 h of LAC treatment, the ladders became less discrete, and this probably reflected further DNA breakdown.
# The assay was performed according to a protocol described by Liu et al (Liu et al., 1997, Cell. 89:175) with some modifications. Briefly, 2-6 million cells were re-suspended in 50 μl PBS followed by 300 μl lysis buffer (100 mM Tris-HCl, pH 8.0, 5 mM EDTA, 0.2 M NaCl. 0.2% w/v SDS, and 0.2 mg/ml proteinase K). After overnight incubation at 37° C., 350 μl of 3M NaCl was added to the mixture and cell debris was removed by centrifugation at 13000 g for 20 min at room temperature. DNA in the supernatant was precipitated with an equal volume of 100% ethanol. […]
# [2] = tested on: Jurkat cells; assay: DNA fragmentation (DNA laddering) in Jurkat cells; assay type: cell-based; details: LAC 6 μM
# Procedure: as §1
# Jurkat cells were treated with LAC (6 μM) in the absence or presence of different concentrations of zVAD.fms (0.4 μM to 33.3 μM) for 6 h. The cells were harvested and their DNA was analyzed by a DNA fragmentation assay according to DNA laddering.
# as §2
# The assay was performed according to a protocol described by Liu et al (Liu et al., 1997, Cell. 89:175) with some modifications. Briefly, 2-6 million cells were re-suspended in 50 μl PBS followed by 300 μl lysis buffer (100 mM Tris-HCl, pH 8.0, 5 mM EDTA, 0.2 M NaCl. 0.2% w/v SDS, and 0.2 mg/ml proteinase K). After overnight incubation at 37° C., 350 μl of 3M NaCl was added to the mixture and cell debris was removed by centrifugation at 13000 g for 20 min at room temperature. DNA in the supernatant was precipitated with an equal volume of 100% ethanol. The pellet was washed with cold 70% ethanol and then dissolved in 20 μl of TE containing 0.2 mg/ml RNase A. After incubation at 37° C. for 2 h, the DNA was resolved on 2% agarose gel and visualized with ethidium bromide staining.
# [3] = tested on: ICAM-1; assay: ICAM-1 expression on 2C TCR transgenic lymph node T cells (flow cytometry); assay type: cell-based, mouse; details: Con A plus 10 μM lactacystin; 24 h and 48 h
# Procedure: After 24 h and 48 h, the cells were examined for ICAM-1 expression by flow cytometry, using FITC-anti-ICAM-1/1B2-PE. Monoclonal Ab 1B2 recognize a clonotypic determinant on the TCR of the transgenic T cells which are largely CD8 positive (>75%).
# Cell-cell interaction is essential in antigen presentation and in T cell's help to T and B cells. The adhesion molecules are necessary to establish the cell-cell interaction. Blocking the adhesion molecules ICAM-1 and LFA-1 is known to inhibit immune responses and to suppress graft rejection. […] Therefore, inhibition of the proteasome activity will be a useful way to control undesirable immune responses during graft rejection, autoimmune diseases, and inflammation.
# [4] = tested on: Bik; assay: Immunoblotting of Bik in mitochondrial fraction of Jurkat cells; assay type: cell-based; details: lactacystin 6 μM
# Procedure: Jurkat cells were treated with lactacystin (6 μM) for 5 h (lanes 2 and 4 of panel […]) or 7 h (lane 3 of panel B), lane 1 in panels A and B is untreated control samples. The cells were separated into mitochondrial (mito in panel A and mitochondria in panel B) and cytosolic (cytosol in panel A) fractions, and the lysate of these two fractions analyzed by immunoblotting using goat anti-Bik, and rabbit anti-Bax, Bak and Bad Ab (all from Santa Cruz Biotech, Santa Cruz, Calif.) followed by enhanced chemiluminescence (ECL, kit from Amersham). […] Jurkat cells, wild type Namalwa cells and Bcl-xL transfected Namalwa cells were treated with medium (lanes 1), staurosporine (0.3 μM, lanes 2) and lactacystin (6 μM, lanes 3) for 6 H. The proteins from the mitochondrial fraction of these cells were analyzed by immunoblotting and the amount of Bik, Bcl-xL, Bax, and Bak evaluated. The same membranes were used sequentially and probed with different antibodies against these factors. A nonspecific band recognized by a monoclonal antibody against cytochrome […] (COX) was used as control for even sample loading in the lanes.
# [5] = tested on: Bax, Bak and Bad; assay: Immunoblotting of Bax, Bak and Bad in Jurkat cells; assay type: cell-based; details: lactacystin 6 μM
# Procedure: Jurkat cells were treated with lactacystin (6 μM) for 5 h (lanes 2 and 4 of panel A), 4 h (lane 2 of panel B) or 7 h (lane 3 of panel B), lane 1 in panels A and B is untreated control samples. The cells were separated into mitochondrial (mito in panel A and mitochondria in panel B) and cytosolic (cytosol in panel A) fractions, and the lysate of these two fractions analyzed by immunoblotting using goat anti-Bik, and rabbit anti-Bax, Bak and Bad Ab (all from Santa Cruz Biotech, Santa Cruz, Calif.) followed by enhanced chemiluminescence (ECL, kit from Amersham).
structure (smiles),measurement,setting,value
"CC(=O)N[C@@H](CSC(=O)[C@]1([C@@H](O)C(C)C)NC(=O)[C@H](C)[C@@H]1O)C(=O)O [LAC, lactacystin]",DNA breakdown (DNA laddering),"[1]; activated T cells (40 h post PHA), LAC for additional 9 h",clear DNA ladders
same,DNA breakdown (DNA laddering),"[1]; resting T cells, 10 μM LAC, 24 h",no apparent DNA breakdown
same,onset of DNA fragmentation,[2],detected as early as 6 h
same,DNA fragmentation,[2]; after 16 h,more prominent
same,upregulation of ICAM-1 on CD8 positive T cells,[3],effectively block the upregulation of ICAM-1
same,accumulation of Bik in Jurkat cells,"[4]; 6 h, staurosporine 0.3 μM",accumulates
same,amount of Bik,"[4]; 4 h, 5 h and 7 h",demonstable increase
same,"amounts of Bax, Bak and Bad",[5],does not appear to have altered
